18 molecules from ChEMBL document CHEMBL1137709, “Enhanced activity of fluorinated quaternary ammonium surfactants against Pseudomonas aeruginosa” (Eur J Med Chem, 2009) can be followed below.

The test system of series [1] is Pseudomonas aeruginosa. Kind of series: Antibacterial activity against Pseudomonas aeruginosa CIP A22 after 24 hrs. Type of series: functional. The following applies: CIP A22, 24 h.
Series [2] is described as follows: Critical micelle concentration in aqueous potassium hydroxide assessed as breakpoint of conductivity by conductimeter. Type of series: physicochemical. The following applies: buffer.

As to `C[N+](C)(CCCC[N+](C)(C)CCNC(=O)NCCC(F)(F)C(F)(F)C(F)(F)C(F)(F)C(F)(F)C(F)(F)F)CCNC(=O)NCCC(F)(F)C(F)(F)C(F)(F)C(F)(F)C(F)(F)C(F)(F)F.[Br-].[Br-]`, the MIC in series [1] is 5.38 µM. Further, in series [2], the CMC was 0.523 mM.
The matching figures for `C[N+](C)(CCSSCC[N+](C)(C)CC(=O)NCCC(F)(F)C(F)(F)C(F)(F)C(F)(F)C(F)(F)C(F)(F)F)CC(=O)NCCC(F)(F)C(F)(F)C(F)(F)C(F)(F)C(F)(F)C(F)(F)F.[Br-].[Br-]`: 4.95 µM and 0.451 mM.
As for `C[N+](C)(C/C=C/C[N+](C)(C)CC(=O)NCCC(F)(F)C(F)(F)C(F)(F)C(F)(F)C(F)(F)C(F)(F)F)CC(=O)NCCC(F)(F)C(F)(F)C(F)(F)C(F)(F)C(F)(F)C(F)(F)F.[Br-].[Br-]`, the MIC in series [1] worked out at 3.67 µM. In addition, the CMC in series [2] came to 0.559 mM.
In turn, `C[N+](C)(CCCCCCCCCC[N+](C)(C)CC(=O)NCCC(F)(F)C(F)(F)C(F)(F)C(F)(F)C(F)(F)C(F)(F)F)CC(=O)NCCC(F)(F)C(F)(F)C(F)(F)C(F)(F)C(F)(F)C(F)(F)F.[Br-].[Br-]` returned an MIC in series [1] of 2.83 µM. Further, the CMC in series [2] was found to be 0.296 mM.
In series [1], `C[N+](C)(CCCC[N+](C)(C)CCOC(=O)NCCC(F)(F)C(F)(F)C(F)(F)C(F)(F)C(F)(F)C(F)(F)F)CCOC(=O)NCCC(F)(F)C(F)(F)C(F)(F)C(F)(F)C(F)(F)C(F)(F)F.[Br-].[Br-]` yielded an MIC of 3.69 µM. Further, the CMC in series [2] was 0.54 mM.
The matching figures for `C[N+](C)(CC[N+](C)(C)CC(=O)NCCC(F)(F)C(F)(F)C(F)(F)C(F)(F)C(F)(F)C(F)(F)F)CC(=O)NCCC(F)(F)C(F)(F)C(F)(F)C(F)(F)C(F)(F)C(F)(F)F.[Br-].[Br-]`: 5.8 µM and 0.591 mM.
With `C[N+](C)(CCCC[N+](C)(C)CSCCC(F)(F)C(F)(F)C(F)(F)C(F)(F)C(F)(F)C(F)(F)F)CSCCC(F)(F)C(F)(F)C(F)(F)C(F)(F)C(F)(F)C(F)(F)F.[Br-].[Br-]`, 4.59 µM was the least that counted as inhibitory in series [1] (MIC). In series [2], the solubility entry was “Insoluble”.
Regarding `C[N+](C)(CCCCCC[N+](C)(C)CC(=O)NCCC(F)(F)C(F)(F)C(F)(F)C(F)(F)C(F)(F)C(F)(F)F)CC(=O)NCCC(F)(F)C(F)(F)C(F)(F)C(F)(F)C(F)(F)C(F)(F)F.[Br-].[Br-]`, it took 5.52 µM to inhibit growth in series [1] (MIC). Moreover, the CMC in series [2] was determined as 0.588 mM.
With `CCCCCCCCCCCC[N+](C)(C)CCOc1ccccc1` [DOMIPHEN BROMIDE], in series [1], the MIC was 40.8 µM.
In series [1], `C[N+](C)(CCCCCCCC[N+](C)(C)CC(=O)NCCC(F)(F)C(F)(F)C(F)(F)C(F)(F)C(F)(F)C(F)(F)F)CC(=O)NCCC(F)(F)C(F)(F)C(F)(F)C(F)(F)C(F)(F)C(F)(F)F.[Br-].[Br-]` returned an MIC of 2.89 µM. In series [2], the CMC came to 0.361 mM.
In the case of `CCCCCCCCNC(=O)C[N+](C)(C)CCCC[N+](C)(C)CC(=O)NCCCCCCCC`, 51.2 µM was the least that counted as inhibitory in series [1] (MIC). That is a double-digit micromolar value.
`C[N+](C)(CCCCCCCCCCCC[N+](C)(C)CC(=O)NCCC(F)(F)C(F)(F)C(F)(F)C(F)(F)C(F)(F)C(F)(F)F)CC(=O)NCCC(F)(F)C(F)(F)C(F)(F)C(F)(F)C(F)(F)C(F)(F)F.[Br-].[Br-]`: inhibition of growth in series [1] (MIC) required 2.76 µM. Further, in series [2], the CMC was 0.269 mM.
The matching figures for `C[N+](C)(CCCC[N+](C)(C)CCC(F)(F)C(F)(F)C(F)(F)C(F)(F)C(F)(F)C(F)(F)F)CCC(F)(F)C(F)(F)C(F)(F)C(F)(F)C(F)(F)C(F)(F)F.[Br-].[Br-]`: 7.31 µM and 2.39 mM.
`C[N+](C)(CCC[N+](C)(C)CC(=O)NCCC(F)(F)C(F)(F)C(F)(F)C(F)(F)C(F)(F)C(F)(F)F)CC(=O)NCCC(F)(F)C(F)(F)C(F)(F)C(F)(F)C(F)(F)C(F)(F)F.[Br-].[Br-]` came in with an MIC in series [1] of 5.19 µM. In addition, the CMC in series [2] is 0.546 mM.
Taken in the same sequence, the figures for `O=C(C[N+]12CC[N+](CC(=O)NCCC(F)(F)C(F)(F)C(F)(F)C(F)(F)C(F)(F)C(F)(F)F)(CC1)CC2)NCCC(F)(F)C(F)(F)C(F)(F)C(F)(F)C(F)(F)C(F)(F)F.[Br-].[Br-]` were 5.82 µM and 0.466 mM.
For `C[N+](C)(CC(=O)NCCC(F)(F)C(F)(F)C(F)(F)C(F)(F)C(F)(F)C(F)(F)F)CC(O)C[N+](C)(C)CC(=O)NCCC(F)(F)C(F)(F)C(F)(F)C(F)(F)C(F)(F)C(F)(F)F.[Br-].[Br-]`, the MIC in series [1] turned out to be 9.25 µM. Moreover, in series [2], the CMC came to 0.541 mM.
The molecule `C[N+](C)(CCCC[N+](C)(C)CC(=O)NCCC(F)(F)C(F)(F)C(F)(F)C(F)(F)C(F)(F)C(F)(F)F)CC(=O)NCCC(F)(F)C(F)(F)C(F)(F)C(F)(F)C(F)(F)C(F)(F)F.[Br-].[Br-]` returned an MIC in series [1] of 5.94 µM. The CMC in series [2] was found to be 0.758 mM.
The matching figures for `C[N+](C)(CCCC[N+](C)(C)CCNC(=O)CCC(F)(F)C(F)(F)C(F)(F)C(F)(F)C(F)(F)C(F)(F)F)CCNC(=O)CCC(F)(F)C(F)(F)C(F)(F)C(F)(F)C(F)(F)C(F)(F)F.[Br-].[Br-]`: 1.88 µM and 0.547 mM.
